Where two headings read alike, the source gives them in different places.
Assays:
mu-opioid receptor (MOR) = molecular target: T1, mu-opioid receptor (MOR) (Rattus norvegicus, UniProt P33535); assay: MOR radioligand competition binding assay ([3H]-DAMGO); settings: Mu screening results
T1 construct: Rat cortices were homogenized using 50 mM Tris, pH 7.4, and centrifuged at 16,500 rpm for 10 min; from tissue; host or cells: rat cortex membranes
Outline: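 Competition for 2 nM [3H]-DAMGO binding was measured in rat cortex membrane suspension (50 mM Tris, pH 7.4, plus 2 mg/mL bovine serum). After filtration through GF/B filters pre-soaked in BSA, filter radioactivity was counted. Data are two duplicate experiments reported as mean ± SD.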

[1] = molecular target: T2, kappa-opioid receptor (KOR) (Cavia porcellus, UniProt P41144); assay: KOR radioligand competition binding assay ([3H]U69,593); design: species or system guinea pig; settings: Kappa screening results
T2 construct: Guinea pig cortices and cerebella were homogenized using 50 mM Tris, pH 7.4; from tissue; host or cells: guinea pig cortex and cerebellum membranes
Outline: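 Guinea pig cortex and cerebellum homogenates in 50 mM Tris pH 7.4 with 10 mM MgCl2, 2 nM [3H]U69,593, 2 h at 25 °C. Unlabeled U50,488 gave the standard curve and nonspecific binding. Filtration on BSA-soaked GF/B filters, scintillation counting; two replicates, repeated twice, mean ± SD.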

[2] = molecular target: T3, delta-opioid receptor (DOR) (Rattus norvegicus, UniProt P33533); assay: DOR radioligand competition binding assay ([3H]-DPDPE); settings: Delta screening results
T3 construct: Rat cortices were homogenized using 50 mM Tris, pH 7.4, 10 mM MgCl2-6H2O, 200 µM PMSF; from tissue; host or cells: rat cortex membranes
Outline: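 Radioligand was 2 nM [3H]-DPDPE, incubated 2.5 h at 25 °C with homogenized rat cortex (50 mM Tris pH 7.4, 10 mM MgCl2, 200 µM PMSF). Bound ligand separated on GF/B filters and counted; nonspecific binding from unlabeled DPDPE. Values are mean ± SD, two experiments, two replicates each.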

[3] = experiment 1, unit inferred, read-out: Ki (Exp 1)
[4] = experiment 2, unit inferred, read-out: Ki (Exp 2)
[5] = mean of Exp 1 and Exp 2, unit inferred, read-out: MEAN (Ki)
[6] = mean of two experiments, read-out: Ki
[7] = first Ki column, unit not printed (apparently M), read-out: Ki (first column)
[8] = mean of both Ki, unit inferred, read-out: MEAN (Ki)
[9] = second Ki column, unit not printed (apparently M), read-out: Ki (second column)

SMILES	Ki (mu-opioid receptor (MOR); [3]) [nM]	Ki (mu-opioid receptor (MOR); [4]) [nM]	Ki (mu-opioid receptor (MOR); [5]) [nM]	Ki (mu-opioid receptor (MOR); [6]) [nM]	Ki [1, 3] [nM]	Ki [1, 4] [nM]	Ki [1, 5] [nM]	Ki [1, 6] [nM]	Ki [2, 7] [nM]	Ki [2, 8] [nM]	Ki [2, 6] [nM]	Ki [2, 9] [nM]
N=C1NC[C@H](Cc2ccccc2)N1C[C@H](Cc1ccccc1)N1C[C@H](Cc2ccccc2)NC1=N [1968-65]	2370	2830	2600	2600	16600	15200	15900	15900	7340	7320	7320	7290
Cc1cc(O)cc(C)c1C[C@H]1CNC(=N)N1C[C@H](CC(C)C)N1C[C@H](CC(C)C)NC1=N [1968-59]	166	156	161	161	223	313	268	268	3840	4210	4210	4580
N=C1NC[C@H](Cc2ccccc2)N1C[C@H](Cc1ccc(O)cc1)N1C[C@H](Cc2ccc(O)cc2)NC1=N [1968-6]	84.5	67.2	75.8	76	5350	3430	4390	4390	4880	4980	4980	5090
C[C@H]1CNC(=N)N1C[C@H](Cc1ccccc1)N1C[C@H](Cc2ccc(O)cc2)NC1=N [1968-34]	1480	1070	1280	1280	6520	9150	7830	7830	5140	6650	6650	8160
Cc1cc(O)cc(C)c1C[C@H]1CN([C@@H](CC(C)C)CN2C(=N)NC[C@@H]2Cc2ccc(O)cc2)C(=N)N1 [1968-28]	118	119	118	118	840	1400	1120	1120	4800	5070	5070	5340
Cc1cc(O)cc(C)c1C[C@H]1CN([C@@H](Cc2ccccc2)CN2C(=N)NC[C@@H]2Cc2c(C)cc(O)cc2C)C(=N)N1 [1968-52]	83.4	102	92.8	93	1200	1240	1220	1220	582	551	551	521
Cc1cc(O)cc(C)c1C[C@H]1CNC(=N)N1C[C@H](Cc1c(C)cc(O)cc1C)N1C[C@H](Cc2ccccc2)NC1=N [1968-61]	40.3	56.5	48.4	48	877	1230	1050	1050	1060	1020	1020	985
Cc1cc(O)cc(C)c1C[C@H]1CN([C@@H](Cc2c(C)cc(O)cc2C)CN2C(=N)NC[C@@H]2Cc2ccc(O)cc2)C(=N)N1 [1968-32]	106	134	120	120	1760	1480	1620	1620	469	488	488	507
N=C1NC[C@H](Cc2ccc(O)cc2)N1C[C@H](Cc1ccc(O)cc1)N1C[C@H](Cc2ccccc2)NC1=N [1968-21]	175	199	187	187	3590	3290	3440	3440	7830	7730	7730	7630
Cc1cc(O)cc(C)c1C[C@H]1CNC(=N)N1C[C@H](Cc1ccccc1)N1C[C@H](CC(C)C)NC1=N [1968-51]	126	162	144	144	872	639	755	755	2580	2550	2560	2530
Cc1cc(O)cc(C)c1C[C@H]1CNC(=N)N1C[C@H](Cc1ccccc1)N1C[C@H](Cc2ccccc2)NC1=N [1968-49]	53.4	84.7	69.1	69	1230	1210	1220	1220	615	543	543	472
Cc1cc(O)cc(C)c1C[C@H]1CN([C@@H](Cc2c(C)cc(O)cc2C)CN2C(=N)NC[C@@H]2Cc2c(C)cc(O)cc2C)C(=N)N1 [1968-64]	58.6	88	73.3	73	2820	1590	2210	2210	508	579	579	650
Cc1cc(O)cc(C)c1C[C@H]1CN([C@@H](Cc2ccc(O)cc2)CN2C(=N)NC[C@@H]2C)C(=N)N1 [1968-40]	36.4	48.8	42.6	43	235	263	249	249	1520	1420	1420	1320
N=C1NC[C@H](Cc2ccc(O)cc2)N1C[C@H](Cc1ccccc1)N1C[C@H](Cc2ccc(O)cc2)NC1=N [1968-18]	403	401	402	402	3470	3630	3550	3550	7570	8080	8080	8580

— article PMC9455983 (International Journal of Molecular Sciences, 2022)
